Drawing on PubChem BioAssay AID248 (DTP/NCI, 2004), this text covers T/C for 25 molecules.

“And” between values parts separate entries of the source, which are not always exact repeats. Equal entries are not always repeated. Inconclusive results and toxic doses are left out.

In this assay the test system is L1210 leukemia ip in BDF1 mice, survival T/C. The assay is described as follows: NCI In Vivo Anticancer Drug Screen. Data for tumor model L1210 Leukemia (intraperitoneal) in B6D2F1 (BDF1) mice. The conditions noted are these: endpoint: mean survival time, higher = longer survival. In outline:
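Read-out is survival time, reported as the treated-group measurement over the vehicle-control measurement.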

Where [1] appears, read: dose: 100.0 mg/kg/injection, schedule: Q01DX009 (ip), vehicle: saline.
[2] abbreviates: dose: 100.0 mg/kg/injection, schedule: Q04DX003 (ip), vehicle: saline.
Where [3] appears, read: dose: 200.0 mg/kg/injection, schedule: Q01DX009 (ip), vehicle: saline.
Setting [4] is: dose: 200.0 mg/kg/injection, schedule: Q04DX003 (ip), vehicle: saline.
[5] abbreviates: dose: 400.0 mg/kg/injection, schedule: Q01DX009 (ip), vehicle: saline.
[6] abbreviates: dose: 400.0 mg/kg/injection, schedule: Q04DX003 (ip), vehicle: saline.
Setting [7] is: dose: 100.0 mg/kg/injection, schedule: Q01DX009 (ip), vehicle: saline with Tween-80.
The mark [8] stands for this setting: dose: 25.0 mg/kg/injection, schedule: Q01DX009 (ip), vehicle: saline.
Setting [9] is: dose: 50.0 mg/kg/injection, schedule: Q01DX009 (ip), vehicle: saline.
[10] abbreviates: dose: 6.25 mg/kg/injection, schedule: Q01DX009 (ip), vehicle: saline.
The mark [11] stands for this setting: dose: 12.5 mg/kg/injection, schedule: Q01DX009 (ip), vehicle: saline.
Where [12] appears, read: dose: 100.0 mg/kg/injection, schedule: Q01DX009 (ip), vehicle: Klucel (hydroxypropylcellulose) (HPC).
Where [13] appears, read: dose: 100.0 mg/kg/injection, schedule: Q01DX001 (ip), vehicle: saline.
Where [14] appears, read: dose: 200.0 mg/kg/injection, schedule: Q01DX001 (ip), vehicle: saline.
Where [15] appears, read: dose: 400.0 mg/kg/injection, schedule: Q01DX001 (ip), vehicle: saline.
Where [16] appears, read: dose: 100.0 mg/kg/injection, schedule: Q04DX003 (ip), vehicle: saline with Tween-80.
Where [17] appears, read: dose: 200.0 mg/kg/injection, schedule: Q01DX009 (ip), vehicle: saline with Tween-80.
Setting [18] is: dose: 200.0 mg/kg/injection, schedule: Q04DX003 (ip), vehicle: saline with Tween-80.
Setting [19] is: dose: 400.0 mg/kg/injection, schedule: Q01DX009 (ip), vehicle: saline with Tween-80.
The mark [20] stands for this setting: dose: 400.0 mg/kg/injection, schedule: Q04DX003 (ip), vehicle: saline with Tween-80.

As to `OCCCCC(O)c1ccccc1` (configuration not stated), the T/C is 107 % of control under setting [1]; 116 % of control under setting [2]; 96 % of control under setting [3]; 107 % of control under setting [4]; 100 % of control under setting [5]; 112 % of control under setting [6].
`COc1cccc2c(=O)c(COC(C)=O)c(C)[nH]c12`: the T/C runs as follows: (dose: 12.5 mg/kg/injection, schedule: Q01DX009 (ip), vehicle: saline with Tween-80) 100 % of control; (dose: 25.0 mg/kg/injection, schedule: Q01DX009 (ip), vehicle: saline with Tween-80) 100 % of control; (dose: 50.0 mg/kg/injection, schedule: Q01DX009 (ip), vehicle: saline with Tween-80) 98 % of control; under setting [7], 106 % of control.
Regarding `C#CCOCCCC(=C)C`, the T/C is 109 % of control under setting [8] and 93 % of control under setting [9].
Consider `CC(C)=CC(=O)OCC[N+](C)(C)C`, for which the T/C was 104 % of control (dose: 3.12 mg/kg/injection, schedule: Q01DX009 (ip), vehicle: saline); 98 % of control under setting [10]; 102 % of control and 109 % of control under setting [11].
Take `O=C(Nc1cccc(F)c1)Nc1nccs1`: the T/C is 89 % of control (dose: 25.0 mg/kg/injection, schedule: Q01DX009 (ip), vehicle: Klucel (hydroxypropylcellulose) (HPC)); 99 % of control (dose: 50.0 mg/kg/injection, schedule: Q01DX009 (ip), vehicle: Klucel (hydroxypropylcellulose) (HPC)); 95 % of control and 97 % of control under setting [12].
`O=[N+]([O-])c1ccc2[nH]ccc2c1`: the T/C under setting [13] was 98 % of control, the T/C under setting [14] is 104 % of control and the T/C under setting [15] was 102 % of control.
For the molecule `NS(=O)(=O)c1ccc(N=Cc2ccc3c(c2)OCO3)cc1`, the T/C was 94 % of control under setting [12]; 92 % of control (dose: 200.0 mg/kg/injection, schedule: Q01DX009 (ip), vehicle: Klucel (hydroxypropylcellulose) (HPC)); 97 % of control (dose: 400.0 mg/kg/injection, schedule: Q01DX009 (ip), vehicle: Klucel (hydroxypropylcellulose) (HPC)).
For `Brc1ccc(SCN(CSc2ccc(Br)cc2)Cc2ccccc2)cc1`, the T/C is 93 % of control under setting [13], 87 % of control under setting [14] and 93 % of control under setting [15].
For the molecule `CC1CCc2ccccc2N1CCN` (configuration not stated), the T/C reads like this: under setting [8], 103 % of control; under setting [9], 103 % of control; under setting [1], 97 % of control.
Consider `COc1cc2c(c3oc4c(c(=O)c13)CCCC4)CCC(C)(C)O2`, for which the T/C is 91 % of control under setting [2], 94 % of control under setting [4] and 94 % of control under setting [6].
Consider `CCCCCCCCCC(=O)N1CCCN(C(=O)CCCCCCCCC)C1`, for which the T/C by setting is: (dose: 30.0 mg/kg/injection, schedule: Q01DX001 (ip), vehicle: saline) 102 % of control; under setting [13], 98 % of control; (dose: 300.0 mg/kg/injection, schedule: Q01DX001 (ip), vehicle: saline) 93 % of control.
For the molecule `C1COC(COCC2CO2)C1` (configuration not stated), the T/C reads like this: under setting [1], 100 % of control; (dose: 100.0 mg/kg/injection, schedule: Q04DX002 (ip), vehicle: saline) 98 % of control and 100 % of control and 120 % of control; under setting [2], 99 % of control; under setting [3], 92 % of control; (dose: 200.0 mg/kg/injection, schedule: Q04DX002 (ip), vehicle: saline) 103 % of control and 109 % of control and 111 % of control; under setting [4], 98 % of control. In addition, the T/C under setting [5] was 93 % of control; the T/C (dose: 400.0 mg/kg/injection, schedule: Q04DX002 (ip), vehicle: saline) is 98 % of control and 102 % of control (2×); the T/C under setting [6] was 105 % of control.
For `Brc1cccc2c(I)cccc12`, the T/C (dose: 100.0 mg/kg/injection, schedule: Q01DX001 (ip), vehicle: carboxymethylcellulose (CMC)) is 95 % of control; the T/C (dose: 200.0 mg/kg/injection, schedule: Q01DX001 (ip), vehicle: carboxymethylcellulose (CMC)) was 98 % of control; the T/C (dose: 400.0 mg/kg/injection, schedule: Q01DX001 (ip), vehicle: carboxymethylcellulose (CMC)) was 92 % of control.
On to `O=[N+]([O-])c1ccc2[nH]c3c(c2c1)CSCC3`, for which the T/C reads like this: under setting [7], 91 % of control; under setting [16], 100 % of control; under setting [17], 88 % of control; under setting [18], 100 % of control; under setting [19], 94 % of control; under setting [20], 95 % of control.
As to `CCN(CC)CCn1ccnc1C`, the T/C was 109 % of control (dose: 50.0 mg/kg/injection, schedule: Q01DX005 (ip), vehicle: saline); 104 % of control (dose: 100.0 mg/kg/injection, schedule: Q01DX005 (ip), vehicle: saline); 104 % of control (dose: 200.0 mg/kg/injection, schedule: Q01DX005 (ip), vehicle: saline).
On to `CN=C(N)C(N)=NC`, for which the T/C by setting is: under setting [16], 104 % of control; under setting [18], 102 % of control; under setting [20], 95 % of control.
For the molecule `CCOC(=O)NCCc1ccc(OC)c(OC)c1`, the T/C was 92 % of control under setting [7]; 97 % of control under setting [16]; 91 % of control under setting [17]; 112 % of control under setting [18]; 96 % of control under setting [19]; 102 % of control under setting [20].
`CCN(CC)CCC1CCNCC1`: the T/C under setting [10] is 101 % of control; the T/C under setting [11] is 95 % of control; the T/C (dose: 12.5 mg/kg/injection, schedule: Q04DX003 (ip), vehicle: saline) was 100 % of control; the T/C under setting [8] is 98 % of control; the T/C (dose: 25.0 mg/kg/injection, schedule: Q04DX003 (ip), vehicle: saline) was 96 % of control.
As for `CC(C)c1ccc2c(c1)CCC1C2CCCC1(C)NCc1ccccc1` (configuration not stated), the T/C (dose: 55.0 mg/kg/injection, schedule: Q01DX Z (ip), vehicle: methylcellulose (MC)) was 87 % of control.
Regarding `CS(=O)(=O)OCCN(CCOS(C)(=O)=O)c1ccc([N+](=O)[O-])c(F)c1`, the T/C (dose: 50.0 mg/kg/injection, schedule: Q01DX001 (ip), vehicle: saline) is 110 % of control; the T/C under setting [13] is 112 % of control; the T/C under setting [14] was 115 % of control; the T/C under setting [15] is 105 % of control.
`COC1OC(COC(c2ccccc2)(c2ccccc2)c2ccccc2)C2OC12` (configuration not stated): the T/C by setting is: under setting [13], 94 % of control; under setting [14], 103 % of control; under setting [15], 97 % of control.
In the case of `CN1C2CCC1CNC2`, the T/C reads like this: under setting [1], 101 % of control; under setting [3], 96 % of control; under setting [5], 90 % of control.
As to `Oc1ccc(N=Cc2ccccc2O)cc1`, the T/C is, setting by setting: under setting [13], 90 % of control; (dose: 116.0 mg/kg/injection, schedule: Q01DX015 (ip), vehicle: steriod suspending solution) 108 % of control; (dose: 175.0 mg/kg/injection, schedule: Q01DX015 (ip), vehicle: steriod suspending solution) 123 % of control; (dose: 178.0 mg/kg/injection, schedule: Q01DX001 (ip), vehicle: steriod suspending solution) 100 % of control; under setting [14], 207 % of control; (dose: 267.0 mg/kg/injection, schedule: Q01DX001 (ip), vehicle: steriod suspending solution) 103 % of control. The T/C is, setting by setting: (dose: 270.0 mg/kg/injection, schedule: Q01DX Z (ip), vehicle: carboxymethylcellulose (CMC)) 104 % of control; under setting [15], 260 % of control; (dose: 400.0 mg/kg/injection, schedule: Q01DX001 (ip), vehicle: steriod suspending solution) 101 % of control; (dose: 400.0 mg/kg/injection, schedule: Q01DX Z (ip), vehicle: carboxymethylcellulose (CMC)) 115 % of control; (dose: 600.0 mg/kg/injection, schedule: Q01DX001 (ip), vehicle: steriod suspending solution) 105 % of control.
In the case of `Cc1cc(=O)[nH]c(=O)n1C1OC(CO)C(O)C1O` (configuration not stated), the T/C under setting [13] is 108 % of control, the T/C under setting [14] is 102 % of control and the T/C under setting [15] was 98 % of control.
As for `O=C1C(=O)C(c2ccccc2)(c2ccccc2)c2cc(-c3ccccc3)c(-c3ccccc3)cc21`, the T/C under setting [18] was 93 % of control.
